The values that follow come from publication PMC5315023 (Nature, 2016).

The assay deals with MEFs expressing Mfn1 or Mfn2 in any combination. Briefly: Mitochondrial aspect ratio/morphology with adenovirally expressed minipeptides. It counts as cell-based, mouse. The following applies: adenoviral expression, MOI of 100, MEFs.

As to RQVSTAMAEEIRRLSVLVDDY [Adeno428-448], the “Effect on mitochondrial fusion / morphology” value is “did not affect mitochondrial fusion”.
